Patent US20060084172A1, “Method for producing stem cells with increased developmental potential” (Julius-Maximilians-Unversitat Wurzburg, priority 2001, published 2006)

What was measured:
Oct4 gene = experiment: Oct4-gene specific RT-PCR after incubation of neural stem cells; assay type: cell-based, mouse; details: 2-day incubation of neural stem cells (NSC #417, NSC #125); 150-250 nanomolar Trichostatin A and/or 300-600 nanomolar 5-aza-2′ deoxycytidine; HPRT normalization
Description: For investigating whether the incubation of adult neural stem cells of Example 1 with deacetylase inhibitors (e.g. Trichostatin A) and/or nucleotide analogs (e.g. 5-aza-2′ deoxycytidine), which prevent a methylation, influences the gene expression, the stem cells were incubated with one of these substances or a mixture of these substances. This was performed in Neurobasal medium, B27 supplement, 20-40 ng EGF, 20-40 ng FGF-2, 150-250 nanomolar Trichostatin A and/or 300-600 nanomolar 5-aza-2′ deoxycytidine for 2 or 4 days. Subsequently to the incubation, RNA was isolated from the cells, and cDNA was produced by means of the enzyme reverse transcriptase. By using gene-specific primers, the gene expression of the Oct4 gene was investigated. The Oct4 gene serves as an example of a development-specific regulator gene. It is only active in very early development stages (zygote, morula, blastula). Later, the expression is restricted to germ cells. The Oct4 gene is not transcribed in the adult organism outside the germ cells, thus also not in somatic stem cells. The Oct4 gene is thus only active in cells, which have a development potential larger than that of the somatic stem cells [see Pesce M, Anastassiedies K, Scholer H R (1999) Oct4: lessons of totipotency from embryonic stem cells. Cells Tissues Organs 165:144-152]. […] Under these conditions, no Oct4 expression was detected anymore. […]

mouse blastocysts = experiment: Injection of treated neural stem cells into blastocysts, Y chromosome-specific PCR of tissues of chimeric animals; assay type: in vivo; details: treated neural stem cells injected into blastocysts, animals examined at 4 weeks, FIG. 4b versus untreated FIG. 4a
From the text: In order to determine the plasticity of the employed somatic stem cell types, neural and hematopoietic stem cells of the Examples 1 and 2 were isolated and injected into mouse blastocysts (see FIG. 2). From the blastocyst develops the complete embryo and later the adult animal. By this method, the injected stem cells are subjected to all inductive processes, which take place during the development of the embryo. If the used hematopoietic or neural stem cells should have the capability to differentiate to all or many tissues or cell types of the adult animal, then descendants of the injected stem cells should be detectable for the developed animal in several different or all tissues and organs. If this detection is positive and the donor cells carry foreign, tissue-specific markers and perform foreign, tissue-specific functions, then the treatment of the somatic stem cells has led to an increased plasticity.
In order to investigate the development potential of somatic stem cells treated according to Example 4, neural stem cells of Example 4 (from male animals) were washed and injected (20-40 pieces) into blastocysts, which were isolated from superovulated females after object pairing. […] Male donor cells, which originate from the injected neural stem cells (NSC), were detected by a Y chromosome-specific PCR reaction (YMT primer). […]

CC(/C=C/C(=O)NO)=C\[C@@H](C)C(=O)c1ccc(N(C)C)cc1 [Trichostatin A]
Oct4 gene expression (RT-PCR) (Oct4 gene): reactivates the Oct4 gene | distribution spectrum of donor cells in tissues (mouse blastocysts): substantially wider distribution spectrum
